Target: T1, p300 (Homo sapiens, UniProt Q09472)
T1 construct: host or cells: A549 P300 HiBit cells
Experiment: P300 degradation, HiBit technology in A549 P300 HiBit cells (2 h)
Format: cell-based
Conditions: 2 hrs post treatment; for Dmax: A549, A549 P300 HiBit cells; for DC50: A549 P300 HiBit cells
How it was run: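 Cells: A549 HiBiT-tagged lines, 0.2×10^4/well, F-12K + 10% HI-FBS, equilibrated overnight. Tx: serial dilution of cpd (10 mM DMSO stock). Readout: HiBiT lytic reagent, 10 min RT shaking, luminescence → potency, Dmax.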

T1 sequence (Q09472 whole entry): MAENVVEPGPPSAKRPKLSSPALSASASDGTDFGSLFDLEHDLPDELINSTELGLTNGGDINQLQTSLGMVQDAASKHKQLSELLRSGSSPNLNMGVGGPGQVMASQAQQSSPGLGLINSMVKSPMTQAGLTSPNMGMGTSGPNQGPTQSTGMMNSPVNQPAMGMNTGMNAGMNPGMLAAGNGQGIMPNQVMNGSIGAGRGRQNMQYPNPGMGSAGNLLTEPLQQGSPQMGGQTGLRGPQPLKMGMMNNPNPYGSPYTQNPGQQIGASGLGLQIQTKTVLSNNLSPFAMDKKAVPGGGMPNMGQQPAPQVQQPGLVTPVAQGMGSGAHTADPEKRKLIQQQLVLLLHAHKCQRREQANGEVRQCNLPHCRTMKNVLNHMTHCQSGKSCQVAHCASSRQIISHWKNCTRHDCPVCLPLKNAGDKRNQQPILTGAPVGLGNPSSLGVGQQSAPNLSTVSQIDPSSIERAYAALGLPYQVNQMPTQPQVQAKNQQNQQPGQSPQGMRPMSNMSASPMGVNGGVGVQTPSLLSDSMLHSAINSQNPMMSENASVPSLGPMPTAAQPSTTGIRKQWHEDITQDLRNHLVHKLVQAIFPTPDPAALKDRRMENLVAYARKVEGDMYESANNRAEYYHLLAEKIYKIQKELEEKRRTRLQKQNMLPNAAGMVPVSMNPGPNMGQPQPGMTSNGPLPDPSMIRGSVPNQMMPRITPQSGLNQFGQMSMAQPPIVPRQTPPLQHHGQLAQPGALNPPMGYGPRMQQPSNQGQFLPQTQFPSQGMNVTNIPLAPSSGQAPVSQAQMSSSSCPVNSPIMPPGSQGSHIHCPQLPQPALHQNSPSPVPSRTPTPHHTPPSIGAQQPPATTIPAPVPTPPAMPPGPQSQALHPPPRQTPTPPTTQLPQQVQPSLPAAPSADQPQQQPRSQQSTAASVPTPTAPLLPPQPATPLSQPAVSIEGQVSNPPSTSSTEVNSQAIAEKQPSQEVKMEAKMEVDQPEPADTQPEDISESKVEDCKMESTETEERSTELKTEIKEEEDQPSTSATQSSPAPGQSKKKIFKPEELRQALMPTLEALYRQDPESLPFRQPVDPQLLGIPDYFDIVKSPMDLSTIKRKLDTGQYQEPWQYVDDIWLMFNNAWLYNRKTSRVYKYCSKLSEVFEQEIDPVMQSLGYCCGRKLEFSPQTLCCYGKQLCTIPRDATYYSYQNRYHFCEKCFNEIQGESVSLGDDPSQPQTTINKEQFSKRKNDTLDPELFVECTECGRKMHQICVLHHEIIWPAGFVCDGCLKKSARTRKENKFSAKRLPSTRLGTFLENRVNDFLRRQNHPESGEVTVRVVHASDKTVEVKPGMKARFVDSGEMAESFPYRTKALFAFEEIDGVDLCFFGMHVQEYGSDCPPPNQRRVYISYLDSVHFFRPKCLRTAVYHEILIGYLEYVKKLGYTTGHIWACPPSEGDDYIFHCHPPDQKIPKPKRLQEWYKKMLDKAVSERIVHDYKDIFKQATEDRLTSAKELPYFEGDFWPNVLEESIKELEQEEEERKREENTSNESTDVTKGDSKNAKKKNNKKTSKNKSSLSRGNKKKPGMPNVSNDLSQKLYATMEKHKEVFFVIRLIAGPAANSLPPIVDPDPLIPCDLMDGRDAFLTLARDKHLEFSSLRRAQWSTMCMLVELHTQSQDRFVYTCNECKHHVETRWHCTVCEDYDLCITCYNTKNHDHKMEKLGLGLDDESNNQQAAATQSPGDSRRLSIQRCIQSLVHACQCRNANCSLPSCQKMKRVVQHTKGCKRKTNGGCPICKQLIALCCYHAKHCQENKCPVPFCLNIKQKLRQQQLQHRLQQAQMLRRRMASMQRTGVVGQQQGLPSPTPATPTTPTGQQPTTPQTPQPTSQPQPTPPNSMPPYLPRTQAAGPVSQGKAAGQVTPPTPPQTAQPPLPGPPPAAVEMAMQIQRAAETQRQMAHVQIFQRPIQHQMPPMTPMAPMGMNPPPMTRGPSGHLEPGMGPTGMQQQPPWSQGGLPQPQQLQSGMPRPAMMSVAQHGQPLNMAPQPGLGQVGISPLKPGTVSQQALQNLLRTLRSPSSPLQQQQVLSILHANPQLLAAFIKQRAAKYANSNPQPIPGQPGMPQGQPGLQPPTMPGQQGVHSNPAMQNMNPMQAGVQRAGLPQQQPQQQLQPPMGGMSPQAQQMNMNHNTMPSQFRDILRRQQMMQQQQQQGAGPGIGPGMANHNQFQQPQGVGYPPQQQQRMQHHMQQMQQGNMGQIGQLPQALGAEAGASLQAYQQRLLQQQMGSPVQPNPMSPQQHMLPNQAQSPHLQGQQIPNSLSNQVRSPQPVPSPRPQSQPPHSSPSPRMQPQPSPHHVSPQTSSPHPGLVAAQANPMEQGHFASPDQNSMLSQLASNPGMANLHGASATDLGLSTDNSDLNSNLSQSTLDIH

Row | Structure (SMILES) | Dmax [%] | DC50 [nM]
1 | Cc1cc2c(N3CCCc4nc(-c5ccc(C(=O)NCC#Cc6ccc7occ(C8CCC(=O)NC8=O)c7c6)nc5)ncc43)nc(C3CCOCC3)cc2n(C)c1=O (centres unmarked) [Example B70, 5-(5-(1,3-dimethyl-2-oxo-7-(tetrahydro-2H-pyran-4-yl)-1,2-dihydro-1,6-naphthyridin-5-yl)-5,6,7,8-tetrahydropyrido[3,2-d]pyrimidin-2-yl)-N-(3-(3-(2,6-dioxopiperidin-3-yl)benzofuran-5-yl)prop-2-yn-1-yl)picolinamide] | 60 to 79 | 1 to 9.9
2 | CN1CCN(c2ccc3c(c2)n(C)c(=O)n3C)c2cc(C(F)(F)F)c(-c3ccc(C(=O)NCC#Cc4cc5c(C6CCC(=O)NC6=O)cccc5o4)nc3)cc21 (centres unmarked) [Example A242, 5-(1-(1,3-dimethyl-2-oxo-2,3-dihydro-1H-benzo[d]imidazol-5-yl)-4-methyl-7-(trifluoromethyl)-1,2,3,4-tetrahydroquinoxalin-6-yl)-N-(3-(4-(2,6-dioxopiperidin-3-yl)benzofuran-2-yl)prop-2-yn-1-yl)picolinamide] | > 80 | 1 to 9.9
3 | Cc1cc(-c2ccc(N(C)c3cc4c(c(C(C)C)n3)n(C)c(=O)n4C)cn2)cnc1C(=O)NCC#Cc1ccc2occ(C3CCC(=O)NC3=O)c2c1 (centres unmarked) [Example A60, N-(3-(3-(2,6-dioxopiperidin-3-yl)benzofuran-5-yl)prop-2-yn-1-yl)-5-((4-isopropyl-1,3-dimethyl-2-oxo-2,3-dihydro-1H-imidazo[4,5-c]pyridin-6-yl)(methyl)amino)-5′-methyl-[2,3′-bipyridine]-6′-carboxamide] | < 20 | > 1000
4 | CC(C#Cc1ccc2occ(C3CCC(=O)NC3=O)c2c1)NC(=O)c1ccc(-c2ncc(N(C)c3cc(C(C)C)c4c(c3)n(C)c(=O)n4C)cn2)cn1 (centres unmarked) [Example A105, N-(4-(3-(2,6-dioxo-piperidin-3-yl)benzofuran-5-yl)but-3-yn-2-yl)-5-(5-((7-isopropyl-1,3-dimethyl-2-oxo-2,3-dihydro-1H-benzo [d]imidazol-5-yl)(methyl)amino)pyrimidin-2-yl)picolinamide] | < 20 | > 1000
5 | Cc1cc(-c2cc3cccc(-c4ccc5c(c4)n(C)c(=O)n5C)c3cn2)cnc1C(=O)NCC#Cc1ccc2occ([C@H]3CCC(=O)NC3=O)c2c1 [Example A62, (R)-5-(8-(1,3-dimethyl-2-oxo-2,3-dihydro-1H-benzo[d]imidazol-5-yl)isoquinolin-3-yl)-N-(3-(3-(2,6-dioxo-piperidin-3-yl)benzofuran-5-yl)prop-2-yn-1-yl)-3-methylpicolinamide] | > 80 | 1 to 9.9
6 | Cc1cc2c(-c3cccc4cc(-c5ccc(C(=O)NCC#Cc6ccc7occ(C8CCC(=O)NC8=O)c7c6)nc5)ncc34)nc(N3CC(C)(O)C3)cc2n(C)c1=O (centres unmarked) [Example B101, N-(3-(3-(2,6-dioxopiperidin-3-yl)benzofuran-5-yl)prop-2-yn-1-yl)-5-(8-(7-(3-hydroxy-3-methylazetidin-1-yl)-1,3-dimethyl-2-oxo-1,2-dihydro-1,6-naphthyridin-5-yl)isoquinolin-3-yl)picolinamide] | > 80 | 1 to 9.9
7 | CC(C)c1cc(C(F)(F)c2ccc(-c3ccc(C(=O)NCC#Cc4ccc5occ(C6CCC(=O)NC6=O)c5c4)nc3)nc2)cc2c1n(C)c(=O)n2C (centres unmarked) [Example A81, 5-(difluoro(7-isopropyl-1,3-dimethyl-2-oxo-2,3-dihydro-1H-benzo[d]imidazol-5-yl)methyl)-N-(3-(3-(2,6-dioxopiperidin-3-yl)benzofuran-5-yl)prop-2-yn-1-yl)-[2,3′-bipyridine]-6′-carboxamide] | < 20 | > 1000
8 | CC(C)c1cc(-c2cccc3cc(-c4ccc(C(=O)NCC#Cc5ccc6c(C#N)nn(C7CCC(=O)NC7=O)c6c5)nc4)ncc23)cc2c1n(C)c(=O)n2C (centres unmarked) [Example A7, N-(3-(3-Cyano-1-(2,6-dioxopiperidin-3-yl)-1H-indazol-6-yl)prop-2-yn-1-yl)-5-(8-(7-isopropyl-1,3-dimethyl-2-oxo-2,3-dihydro-1H-benzo[d]imidazol-5-yl)isoquinolin-3-yl)picolinamide] | > 80 | 10 to 99
9 | Cc1cc(N2CCCc3nc(-c4ccc(C(=O)NCC#Cc5ccc6occ(C7CCC(=O)NC7=O)c6c5)nc4)ncc32)c2cc(C)c(=O)n(C)c2c1 (centres unmarked) [Example B151, N-(3-(3-(2,6-dioxopiperidin-3-yl)benzofuran-5-yl)prop-2-yn-1-yl)-5-(5-(1,3,7-trimethyl-2-oxo-1,2-dihydroquinolin-5-yl)-5,6,7,8-tetrahydro-pyrido[3,2-d]pyrimidin-2-yl)picolinamide] | > 80 | 1 to 9.9
10 | Cn1cc(-c2ccc3c(c2)n(C)c(=O)n3C)c2cnc(-c3ccc(C(=O)NCC#Cc4cc5c(C6CCC(=O)NC6=O)nccc5o4)nc3)cc2c1=O (centres unmarked) [Example A230, 5-(8-(1,3-dimethyl-2-oxo-2,3-dihydro-1H-benzo[d]imidazol-5-yl)-6-methyl-5-oxo-5,6-dihydro-2,6-naphthyridin-3-yl)-N-(3-(4-(2,6-dioxopiperidin-3-yl)furo[3,2-c]pyridin-2-yl)prop-2-yn-1-yl)picolinamide] | > 80 | 1 to 9.9
11 | CC(C)c1cc(-c2cccc3cc(-c4ccc(C(=O)NCC#Cc5ccc6c(c5)nnn6C5CCC(=O)NC5=O)nc4)ncc23)cc2c1n(C)c(=O)n2C (centres unmarked) [Example A17, N-(3-(1-(2,6-Dioxopiperidin-3-yl)-1H-benzo[d][1,2,3]triazol-5-yl)prop-2-yn-1-yl)-5-(8-(7-isopropyl-1,3-dimethyl-2-oxo-2,3-dihydro-1H-benzo[d]imidazol-5-yl)isoquinolin-3-yl)picolinamide] | < 20 | > 1000
12 | Cc1cc2c(N3CCOc4cc(-c5ccc(C(=O)NCC#Cc6ccc7occ(C8CCC(=O)NC8=O)c7c6)nc5)c(F)cc43)cc(C(C)C)cc2n(C)c1=O (centres unmarked) [Example B91, N-(3-(3-(2,6-dioxopiperidin-3-yl)benzofuran-5-yl)prop-2-yn-1-yl)-5-(6-fluoro-4-(7-isopropyl-1,3-dimethyl-2-oxo-1,2-dihydroquinolin-5-yl)-3,4-dihydro-2H-benzo[b][1,4]oxazin-7-yl)picolinamide] | > 80 | 10 to 99
13 | CCc1cc2c(N3CCCc4nc(-c5ccc(C(=O)NCC#Cc6ccc7occ(C8CCC(=O)NC8=O)c7c6)nc5)ncc43)cc(C3CCOCC3)cc2n(C)c1=O (centres unmarked) [Example B122, N-(3-(3-(2,6-dioxopiperidin-3-yl)benzofuran-5-yl)prop-2-yn-1-yl)-5-(5-(3-ethyl-1-methyl-2-oxo-7-(tetrahydro-2H-pyran-4-yl)-1,2-dihydroquinolin-5-yl)-5,6,7,8-tetrahydropyrido [3,2-d]pyrimidin-2-yl)picolinamide] | < 20 | > 1000
14 | Cc1cc2c(N3CCCc4nc(-c5ccc(C(=O)NCC#Cc6cc7c(C8CCC(=O)NC8=O)cccc7o6)nc5)ncc43)nc(N3CC4CC4C3)cc2n(C)c1=O (centres unmarked) [Example B172, 5-(5-(7-(3-azabicyclo[3.1.0]hexan-3-yl)-1,3-dimethyl-2-oxo-1,2-dihydro-1,6-naphthyridin-5-yl)-5,6,7,8-tetrahydropyrido[3,2-d]pyrimidin-2-yl)-N-(3-(4-(2,6-dioxopiperidin-3-yl)benzofuran-2-yl)prop-2-yn-1-yl)picolinamide] | > 80 | 10 to 99
15 | CCn1c(=O)n(C)c2ccc(-c3cccc4cc(-c5ccc(C(=O)NCC#Cc6cc7c(C8CCC(=O)NC8=O)cccc7o6)nc5)ncc34)cc21 (centres unmarked) [Example A267, N-(3-(4-(2,6-dioxo-piperidin-3-yl)benzofuran-2-yl)prop-2-yn-1-yl)-5-(8-(3-ethyl-1-methyl-2-oxo-2,3-dihydro-1H-benzo [d]imidazol-5-yl)isoquinolin-3-yl)picolinamide] | > 80 | 1 to 9.9
16 | Cc1cc(N2CCN(C)c3nc(-c4ccc(C(=O)NCC#Cc5cc6c(C7CCC(=O)NC7=O)nccc6o5)nc4)ncc32)cc2c1n(C)c(=O)n2C (centres unmarked) [Example A220, N-(3-(4-(2,6-dioxo-piperidin-3-yl)furo[3,2-c]pyridin-2-yl)prop-2-yn-1-yl)-5-(8-methyl-5-(1,3,7-trimethyl-2-oxo-2,3-dihydro-1H-benzo [d]imidazol-5-yl)-5,6,7,8-tetrahydro-pteridin-2-yl)picolinamide] | > 80 | 1 to 9.9
17 | CCc1cc(Oc2ccc(-c3cnc(C(=O)NCC#Cc4cccc(NC5CCC(=O)NC5=O)c4)c(C)c3)nc2)c2cc(C)c(=O)n(C)c2c1 (centres unmarked) [Example B17, N-(3-(3-((2,6-Dioxopiperidin-3-yl)amino)phenyl)prop-2-yn-1-yl)-5-((7-ethyl-1,3-dimethyl-2-oxo-1,2-dihydroquinolin-5-yl)oxy)-5′-methyl-[2,3′-bipyridine]-6′-carboxamide] | < 20 | > 1000
18 | Cc1cc(-c2cc3c(cc2F)N(c2cccc4c2cc(C)c(=O)n4C)CCO3)cnc1C(=O)NCC#Cc1ccc2occ(C3CCC(=O)NC3=O)c2c1 (centres unmarked) [Example B21, 5-(4-(1,3-dimethyl-2-oxo-1,2-dihydroquinolin-5-yl)-6-fluoro-3,4-dihydro-2H-benzo[b][1,4]oxazin-7-yl)-N-(3-(3-(2,6-dioxopiperidin-3-yl)benzofuran-5-yl)prop-2-yn-1-yl)-3-methylpicolinamide] | > 80 | 1 to 9.9
19 | Cc1cc(-c2ncc3c(n2)OCCN3c2cnc3c(c2)n(C)c(=O)n3C)cnc1C(=O)NCC#Cc1ccc2occ(C3CCC(=O)NC3=O)c2c1 (centres unmarked) [Example A126, 5-(5-(1,3-dimethyl-2-oxo-2,3-dihydro-1H-imidazo[4,5-b]pyridin-6-yl)-6,7-dihydro-5H-pyrimido[4,5-b] [1,4]oxazin-2-yl)-N-(3-(3-(2,6-dioxo-piperidin-3-yl)benzofuran-5-yl)prop-2-yn-1-yl)-3-methylpicolinamide] | 20 to 39 | 1 to 9.9
